Patent US20240246942A1, “KINASE INHIBITORS FOR THE TREATMENT OF NEURODEGENERATIVE DISEASES” (priority 2020, published 2024)

Key:
Assay in all cases: biochemical
[1] = target: T1, panel of 374 wild-type kinases (Homo sapiens, UniProt Q9H3Y6); details: read-out: % Enzyme Activity (relative to DMSO controls), kinase SRMS
T1 construct: purchased Reaction Biology Corporation

[2] = target: T2, panel of 374 wild-type kinases (Homo sapiens, UniProt O15264); details: read-out: % Enzyme Activity (relative to DMSO controls), kinase P38d/MAPK13
T2 construct: purchased Reaction Biology Corporation
T2 sequence (O15264 1-365): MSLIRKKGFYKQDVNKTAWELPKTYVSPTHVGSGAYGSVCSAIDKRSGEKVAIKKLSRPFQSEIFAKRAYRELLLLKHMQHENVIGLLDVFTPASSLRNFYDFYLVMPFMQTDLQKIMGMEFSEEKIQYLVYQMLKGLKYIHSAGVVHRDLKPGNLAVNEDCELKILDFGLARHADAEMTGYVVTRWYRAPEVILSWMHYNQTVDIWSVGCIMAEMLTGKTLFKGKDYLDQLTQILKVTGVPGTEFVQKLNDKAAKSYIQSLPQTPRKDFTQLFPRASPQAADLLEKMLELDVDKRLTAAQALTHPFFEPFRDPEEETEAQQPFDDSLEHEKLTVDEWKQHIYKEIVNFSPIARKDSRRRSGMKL

[3] = target: T3, panel of 374 wild-type kinases (Homo sapiens, UniProt O60285); details: read-out: % Enzyme Activity (relative to DMSO controls), ARK5/NUAK1
T3 construct: purchased Reaction Biology Corporation
T3 sequence (O60285 1-661): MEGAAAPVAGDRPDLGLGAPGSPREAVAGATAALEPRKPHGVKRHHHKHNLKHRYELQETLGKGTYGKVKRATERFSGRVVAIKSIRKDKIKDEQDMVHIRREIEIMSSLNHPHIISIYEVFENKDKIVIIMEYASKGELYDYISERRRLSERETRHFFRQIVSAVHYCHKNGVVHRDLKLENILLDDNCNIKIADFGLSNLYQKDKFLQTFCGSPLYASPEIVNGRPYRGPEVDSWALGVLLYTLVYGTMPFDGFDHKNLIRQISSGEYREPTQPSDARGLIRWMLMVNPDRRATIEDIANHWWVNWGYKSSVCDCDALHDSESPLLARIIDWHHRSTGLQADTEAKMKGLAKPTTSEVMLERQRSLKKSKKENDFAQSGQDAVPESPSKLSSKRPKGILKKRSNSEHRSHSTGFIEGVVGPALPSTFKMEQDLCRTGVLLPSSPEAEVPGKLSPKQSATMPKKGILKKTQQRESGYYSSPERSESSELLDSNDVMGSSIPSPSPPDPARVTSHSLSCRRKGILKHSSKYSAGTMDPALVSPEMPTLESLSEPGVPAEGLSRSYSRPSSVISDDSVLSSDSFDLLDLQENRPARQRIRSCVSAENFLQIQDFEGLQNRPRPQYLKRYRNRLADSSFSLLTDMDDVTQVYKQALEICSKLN

[4] = target: T4, panel of 374 wild-type kinases (Homo sapiens, UniProt P41743); details: read-out: % Enzyme Activity (relative to DMSO controls), kinase PKCiota
T4 construct: purchased Reaction Biology Corporation
T4 sequence (P41743 1-596): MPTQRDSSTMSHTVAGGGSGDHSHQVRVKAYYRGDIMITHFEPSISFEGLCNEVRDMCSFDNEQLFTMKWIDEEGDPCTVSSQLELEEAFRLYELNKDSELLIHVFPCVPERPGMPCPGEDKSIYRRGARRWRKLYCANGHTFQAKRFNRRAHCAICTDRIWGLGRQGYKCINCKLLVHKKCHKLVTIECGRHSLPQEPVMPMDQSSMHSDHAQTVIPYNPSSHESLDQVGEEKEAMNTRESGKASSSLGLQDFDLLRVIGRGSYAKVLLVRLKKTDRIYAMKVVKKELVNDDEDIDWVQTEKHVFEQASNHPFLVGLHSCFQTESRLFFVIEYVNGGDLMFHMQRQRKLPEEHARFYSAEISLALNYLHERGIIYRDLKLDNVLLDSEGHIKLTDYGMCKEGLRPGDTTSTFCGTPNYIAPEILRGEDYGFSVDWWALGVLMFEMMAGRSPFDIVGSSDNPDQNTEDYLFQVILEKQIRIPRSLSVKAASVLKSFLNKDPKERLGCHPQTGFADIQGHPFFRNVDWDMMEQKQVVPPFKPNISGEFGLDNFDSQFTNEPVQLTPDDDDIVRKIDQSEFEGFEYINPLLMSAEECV

[5] = target: T5, panel of 374 wild-type kinases (Homo sapiens, UniProt Q9UQB9); details: read-out: % Enzyme Activity (relative to DMSO controls), Aurora C
T5 construct: purchased Reaction Biology Corporation
T5 sequence (Q9UQB9 1-309): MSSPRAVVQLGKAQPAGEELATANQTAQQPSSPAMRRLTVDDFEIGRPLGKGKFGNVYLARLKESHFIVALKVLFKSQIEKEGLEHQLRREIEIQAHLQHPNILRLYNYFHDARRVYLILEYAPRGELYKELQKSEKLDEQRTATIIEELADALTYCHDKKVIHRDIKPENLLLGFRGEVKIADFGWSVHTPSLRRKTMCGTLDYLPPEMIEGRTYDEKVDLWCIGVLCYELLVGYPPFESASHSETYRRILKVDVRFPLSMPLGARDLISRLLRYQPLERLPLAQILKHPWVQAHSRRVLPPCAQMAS

[6] = target: T6, panel of 374 wild-type kinases (Homo sapiens, UniProt Q9UBE8); details: read-out: % Enzyme Activity (relative to DMSO controls), NLK
T6 construct: purchased Reaction Biology Corporation
T6 sequence (Q9UBE8 1-527): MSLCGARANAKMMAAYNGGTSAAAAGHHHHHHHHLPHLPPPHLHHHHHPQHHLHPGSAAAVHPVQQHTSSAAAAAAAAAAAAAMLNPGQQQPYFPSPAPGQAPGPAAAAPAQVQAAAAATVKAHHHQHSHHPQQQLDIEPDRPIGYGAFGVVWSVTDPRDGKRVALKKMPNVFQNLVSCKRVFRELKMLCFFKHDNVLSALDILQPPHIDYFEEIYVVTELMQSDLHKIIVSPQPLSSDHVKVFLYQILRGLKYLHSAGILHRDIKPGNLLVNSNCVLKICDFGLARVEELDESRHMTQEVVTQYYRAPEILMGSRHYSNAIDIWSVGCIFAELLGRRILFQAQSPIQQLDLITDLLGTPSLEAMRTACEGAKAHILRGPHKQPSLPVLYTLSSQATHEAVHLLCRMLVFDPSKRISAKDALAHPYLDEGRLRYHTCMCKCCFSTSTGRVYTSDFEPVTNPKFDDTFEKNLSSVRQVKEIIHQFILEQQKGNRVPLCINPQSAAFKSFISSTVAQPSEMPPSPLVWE

[7] = target: T7, panel of 374 wild-type kinases (Homo sapiens, UniProt Q9HCP0); details: read-out: % Enzyme Activity (relative to DMSO controls), CK1g1
T7 construct: purchased Reaction Biology Corporation
T7 sequence (Q9HCP0 whole entry): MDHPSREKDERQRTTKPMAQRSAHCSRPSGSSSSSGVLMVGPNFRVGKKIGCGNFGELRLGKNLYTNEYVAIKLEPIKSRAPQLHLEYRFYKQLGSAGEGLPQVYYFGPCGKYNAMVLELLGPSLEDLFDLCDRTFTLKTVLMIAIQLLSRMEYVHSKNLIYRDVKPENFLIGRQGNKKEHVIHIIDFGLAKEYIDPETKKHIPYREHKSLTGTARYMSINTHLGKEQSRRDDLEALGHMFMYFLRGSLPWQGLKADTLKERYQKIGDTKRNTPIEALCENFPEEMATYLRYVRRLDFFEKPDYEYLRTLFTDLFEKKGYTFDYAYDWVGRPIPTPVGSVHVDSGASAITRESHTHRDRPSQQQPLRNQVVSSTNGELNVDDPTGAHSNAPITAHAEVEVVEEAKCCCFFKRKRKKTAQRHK

T1 sequence (Q9H3Y6 whole entry): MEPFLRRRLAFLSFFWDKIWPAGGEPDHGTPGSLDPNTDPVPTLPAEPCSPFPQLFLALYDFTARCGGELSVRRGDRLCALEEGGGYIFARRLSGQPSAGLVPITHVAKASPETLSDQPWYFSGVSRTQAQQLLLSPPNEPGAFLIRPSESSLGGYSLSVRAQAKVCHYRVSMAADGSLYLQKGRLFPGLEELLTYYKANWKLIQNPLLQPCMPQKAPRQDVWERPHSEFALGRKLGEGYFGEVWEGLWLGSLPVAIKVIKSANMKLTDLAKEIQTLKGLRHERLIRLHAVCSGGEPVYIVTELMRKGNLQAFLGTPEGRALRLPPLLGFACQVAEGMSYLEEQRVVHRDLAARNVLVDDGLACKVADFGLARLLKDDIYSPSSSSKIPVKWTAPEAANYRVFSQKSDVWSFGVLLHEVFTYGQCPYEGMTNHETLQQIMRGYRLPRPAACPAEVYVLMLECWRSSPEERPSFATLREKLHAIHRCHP

| SMILES | remaining activity at 10 µM ([1]; 10 uM) [%] | remaining activity at 10 µM ([2]; 10 uM) [%] | remaining activity at 10 µM ([3]; 10 uM) [%] | remaining activity at 10 µM ([4]; 10 uM) [%] | remaining activity at 10 µM ([5]; 10 uM) [%] | remaining activity at 10 µM ([6]; 10 uM) [%] | remaining activity at 10 µM ([7]; 10 uM) [%] | remaining activity at 5 µM [1] [%] | remaining activity at 5 µM [2] [%] | remaining activity at 5 µM [3] [%] | remaining activity at 5 µM [4] [%] | remaining activity at 5 µM [5] [%] | remaining activity at 5 µM [6] [%] | remaining activity at 5 µM [7] [%] |
| --- | --- | --- | --- | --- | --- | --- | --- | --- | --- | --- | --- | --- | --- | --- |
| Cc1sc(C(=O)NC2COC2)cc1-n1cc(NC(=O)Nc2c(F)cccc2Cl)cn1 [Compound 27, 4-(4-(3-(2-chloro-6-fluorophenyl)ureido)-1H-pyrazol-1-yl)-5-methyl-N-(oxetan-3-yl)thiophene-2-carboxamide] | 104 | 89.2 | 96.9 | 90.8 | 104 | 85.2 | 101 | – | – | – | – | – | – | – |
| O=C(Nc1cnn(-c2csc(C(=O)NC3COC3)c2)c1)Nc1c(F)cccc1Cl [Compound 25, 4-(4-(3-(2-chloro-6-fluorophenyl)ureido)-1H-pyrazol-1-yl)-N-(oxetan-3-yl)thiophene-2-carboxamide] | – | – | – | – | – | – | – | 105 | 98.4 | 95.2 | 87.4 | 58.5 | 87.4 | 102 |
| O=C(Nc1cnn(-c2csc(C(=O)NC3COC3)c2)c1)Nc1ccccc1Cl [Compound 17, 4-(4-(3-(2-chlorophenyl)ureido)-1H-pyrazol-1-yl)-N-(oxetan-3-yl)thiophene-2-carboxamide] | – | – | – | – | – | – | – | 99.8 | 122 | 97.9 | 95.5 | 104 | 99.5 | 99 |
